Test results reported in ChEMBL document CHEMBL1133119, “Synthesis of apicidin-derived quinolone derivatives: parasite-selective histone deacetylase inhibitors and antiproliferative agents” (J Med Chem, 2000).
pIC50: −log10 of the molar value. Values after ≈ are worked out from the molar mass of the structure shown.

What was measured:
Histone deacetylase [1] = assay: Inhibition of [3H]-Apicidin A binding to Histone deacetylase of chick liver extract; parameters: species or system Gallus gallus
[2] = Tested for parasite (malaria)-based antiproliferative assay; type: functional
[3] = molecular target: Histone deacetylase (Eimeria tenella); assay: Displacement of [3H]-Apicidin A from Histone deacetylase of Eimeria tenella extract
HeLa = assay: Tested for mammalian cell (HeLa)-based antiproliferative assay; type: functional, Homo sapiens
Histone deacetylase [4] = assay: Tested for Histone deacetylase enzyme inhibition assay using mammalian cell nuclear extract (HeLa); type: protein assay, Homo sapiens
[5] = Tested for parasite (malaria)-based antiproliferative assay; ND means no data; type: functional

SMILES	IC50 (Histone deacetylase [1]) [µg/mL]	IC50 [2] [µg/mL]	pIC50 [3]	AP50 (HeLa) [ng/mL]	pIC50 (Histone deacetylase [4])	IC50 (Histone deacetylase [4]) [µM]	IC50 [5] [µg/mL]
CCC(=O)CCCCC[C@@H]1NC(=O)[C@H]2CCCCN2C(=O)[C@H]([C@@H](C)CC)NC(=O)[C@H](c2cn(CC(=O)OC)c3ccccc3c2=O)NC1=O [listing 1 of 2 here]	2 (≈ 2.94 µM)	0.79 (≈ 1.16 µM)	6.36	–	–	–	–
CCC(=O)CCCCC[C@@H]1NC(=O)[C@H]2CCCCN2C(=O)[C@H]([C@@H](C)CC)NC(=O)[C@H](c2cn(CC(=O)OC)c3ccccc3c2=O)NC1=O [listing 2 of 2 here]	–	–	–	>10000	–	–	–
CCC(=O)CCCCC[C@@H]1NC(=O)[C@H]2CCCCN2C(=O)[C@H]([C@@H](C)CC)NC(=O)[C@H](c2cn(C)c3ccccc3c2=O)NC1=O [listing 1 of 2 here]	1 (≈ 1.61 µM)	0.117 (≈ 0.188 µM)	7.02	–	6.62	–	–
CCC(=O)CCCCC[C@@H]1NC(=O)[C@H]2CCCCN2C(=O)[C@H]([C@@H](C)CC)NC(=O)[C@H](c2cn(C)c3ccccc3c2=O)NC1=O [listing 2 of 2 here]	–	–	–	>10000	–	–	–
CCC(=O)CCCCC[C@@H]1NC(=O)[C@H]2CCCCN2C(=O)[C@H]([C@@H](C)CC)NC(=O)[C@H](Cc2cn(CC(=O)OC)c3ccccc23)NC1=O [listing 1 of 2 here]	0.005 (≈ 0.00751 µM)	0.25 (≈ 0.375 µM)	7.98	–	–	–	–
CCC(=O)CCCCC[C@@H]1NC(=O)[C@H]2CCCCN2C(=O)[C@H]([C@@H](C)CC)NC(=O)[C@H](Cc2cn(CC(=O)OC)c3ccccc23)NC1=O [listing 2 of 2 here]	–	–	–	150	–	–	–
CCCn1cc(C[C@@H]2NC(=O)[C@H](CCCCCC(=O)CC)NC(=O)[C@H]3CCCCN3C(=O)[C@H]([C@@H](C)CC)NC2=O)c2ccccc21 [listing 1 of 2 here]	0.01 (≈ 0.0157 µM)	0.25 (≈ 0.393 µM)	7.33	–	–	–	–
CCCn1cc(C[C@@H]2NC(=O)[C@H](CCCCCC(=O)CC)NC(=O)[C@H]3CCCCN3C(=O)[C@H]([C@@H](C)CC)NC2=O)c2ccccc21 [listing 2 of 2 here]	–	–	–	625	–	–	–
CCCn1cc([C@@H]2NC(=O)[C@H](CCCCCC(=O)CC)NC(=O)[C@H]3CCCCN3C(=O)[C@H]([C@@H](C)CC)NC2=O)c(=O)c2ccccc21 [listing 1 of 2 here]	0.7 (≈ 1.08 µM)	0.44 (≈ 0.677 µM)	6.72	–	–	0.23	–
CCCn1cc([C@@H]2NC(=O)[C@H](CCCCCC(=O)CC)NC(=O)[C@H]3CCCCN3C(=O)[C@H]([C@@H](C)CC)NC2=O)c(=O)c2ccccc21 [listing 2 of 2 here]	–	–	–	>10000	–	–	–
CCC(=O)CCCCC[C@@H]1NC(=O)[C@H]2CCCCN2C(=O)[C@H]([C@@H](C)CC)NC(=O)[C@H](c2cn(CC(=O)O)c3ccccc3c2=O)NC1=O [listing 1 of 2 here]	5 (≈ 7.51 µM)	0.55 (≈ 0.826 µM)	5.52	–	–	–	–
CCC(=O)CCCCC[C@@H]1NC(=O)[C@H]2CCCCN2C(=O)[C@H]([C@@H](C)CC)NC(=O)[C@H](c2cn(CC(=O)O)c3ccccc3c2=O)NC1=O [listing 2 of 2 here]	–	–	–	>10000	–	–	–
CCC(=O)CCCCC[C@@H]1NC(=O)[C@H]2CCCCN2C(=O)[C@H]([C@@H](C)CC)NC(=O)[C@H](c2cnc3ccccc3c2O)NC1=O	1 (≈ 1.65 µM)	0.04 (≈ 0.0658 µM)	7.61	>10000	–	–	–
CCC(=O)CCCCC[C@@H]1NC(=O)[C@H]2CCCCN2C(=O)[C@H]([C@@H](C)CC)NC(=O)[C@H](c2cn(CC)c3ccccc3c2=O)NC1=O	2 (≈ 3.15 µM)	0.24 (≈ 0.377 µM)	6.96	>10000	–	0.33	–
CCC(=O)CCCCC[C@@H]1NC(=O)[C@H]2CCCCN2C(=O)[C@H]([C@@H](C)CC)NC(=O)[C@H](c2cn(OC)c3ccccc3c2=O)NC1=O	1 (≈ 1.57 µM)	0.04 (≈ 0.0627 µM)	7.20	10000	–	0.086	–
CCC(=O)CCCCC[C@@H]1NC(=O)[C@H]2CCCCN2C(=O)[C@H]([C@@H](C)CC)NC(=O)[C@H](Cc2cn(CC(=O)O)c3ccccc23)NC1=O	0.065 (≈ 0.0997 µM)	–	7.00	–	–	–	1 (≈ 1.53 µM)
CCC(=O)CCCCC[C@@H]1NC(=O)[C@H]2CCCCN2C(=O)[C@H]([C@@H](C)CC)NC(=O)[C@H](Cc2cn(CC)c3ccccc23)NC1=O	0.01 (≈ 0.0161 µM)	0.18 (≈ 0.289 µM)	6.79	–	–	–	–
CCC(=O)CCCCC[C@@H]1NC(=O)[C@H]2CCCCN2C(=O)[C@H]([C@@H](C)CC)NC(=O)[C@H](Cc2cn(C)c3ccccc23)NC1=O	0.005 (≈ 0.00823 µM)	0.02 (≈ 0.0329 µM)	7.70	225	–	–	–
CCC(=O)CCCCC[C@@H]1NC(=O)[C@H]2CCCCN2C(=O)[C@H]([C@@H](C)CC)NC(=O)[C@H](Cc2cn(OC)c3ccccc23)NC1=O [APICIDIN]	–	0.057 (≈ 0.0914 µM)	–	78	–	–	–
